For one assay, the system named is 20S proteasome. Description: 20S proteasome cleavage assay with LC-MS of cleavage products. The class given is biochemical, human. Conditions: 10 μM lactacystin; substrate 23 mer; compared to uninhibited proteasome reaction.
The next assay deals with HLA-A2 (Homo sapiens, UniProt P04439, D140Y/D185E/D98H/E176V/E277Q/G131W/G231S/I119V/I121R/I166T/I218V/L300P/L318F/N151K/N90K/P208A/P217A/Q86G/Q94H/R138H/R169H/T345S). Description: T2 HLA-A2 stabilization assay. The assay is classed as cell-based.

For the molecule `CC(=O)N[C@@H](CSC(=O)[C@]1([C@@H](O)C(C)C)NC(=O)[C@H](C)[C@@H]1O)C(=O)O` [lactacystin], the “Effect of lactacystin on generation of p373–382 by proteasome” value in the assay with 20S proteasome is given as “not completely blocked”.

The EC50 is the midpoint of the concentration-response curve. High values mean weaker potency, low ones greater potency. Molecule `CC(C)C[C@H](NC(=O)[C@@H](N)CO)C(=O)N[C@@H](C)C(=O)N[C@@H](Cc1ccccc1)C(=O)N[C@@H](CC(C)C)C(=O)N1CCC[C@H]1C(=O)N[C@@H](CCC(=O)O)C(=O)N[C@@H](CO)C(=O)N[C@@H](Cc1ccccc1)C(=O)N[C@@H](CC(=O)O)C(=O)O` [p373–382] came in with an EC50 at HLA-A2 of 1.8 µM.

These data come from article PMC3529812 (Journal of immunology (Baltimore, Md. : 1950), 2012).
